Test results: ChEMBL document CHEMBL1201862, “PubChem BioAssay data set” (2004)
Activity calls are given as the source filed them.

What was measured:
[1] = target: Potassium channel subfamily K member 3 (Homo sapiens, UniProt O14649); assay: TASK1 (KCNK3) potassium channel inhibitors, SAR follow-up, CHO cells, FluxOR thallium flux (AID 652212); format: functional
[2] = target: Potassium channel subfamily K member 9 (Homo sapiens, UniProt Q9NPC2); assay: TASK3 (KCNK9) channel inhibitors, thallium flux, SAR follow-up, selectivity assay for TASK1 inhibitor project, cell-based, FluxOR thallium flux, concentration-response (AID 652211); format: functional;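 note: potency is for inhibitors of the channel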
Potassium channel subfamily K member 9, sequence (Q9NPC2 whole entry): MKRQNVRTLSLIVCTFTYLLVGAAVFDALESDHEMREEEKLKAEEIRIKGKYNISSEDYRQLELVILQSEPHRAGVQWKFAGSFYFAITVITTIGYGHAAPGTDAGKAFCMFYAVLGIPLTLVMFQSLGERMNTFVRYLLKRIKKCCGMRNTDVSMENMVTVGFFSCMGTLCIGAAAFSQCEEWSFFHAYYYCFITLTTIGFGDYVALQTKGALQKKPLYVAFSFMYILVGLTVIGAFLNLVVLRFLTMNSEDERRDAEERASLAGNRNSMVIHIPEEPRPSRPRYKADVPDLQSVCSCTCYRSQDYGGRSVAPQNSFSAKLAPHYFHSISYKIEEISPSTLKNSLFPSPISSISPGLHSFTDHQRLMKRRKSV

[3] = target: COUP transcription factor 2 (Homo sapiens, UniProt P24468); assay: Luminescence-based cell-based high throughput dose response assay to identify inhibitors of COUP-TFII (NR2F2).; format: functional;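 note: HEK293 cells transiently cotransfected with COUP-TFII expression vector and reporter; luciferase reporter luminescence driven by COUP-TFII from the pX2-168 reporter plasmid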
COUP transcription factor 2, sequence (P24468 whole entry, the tested form may be a part): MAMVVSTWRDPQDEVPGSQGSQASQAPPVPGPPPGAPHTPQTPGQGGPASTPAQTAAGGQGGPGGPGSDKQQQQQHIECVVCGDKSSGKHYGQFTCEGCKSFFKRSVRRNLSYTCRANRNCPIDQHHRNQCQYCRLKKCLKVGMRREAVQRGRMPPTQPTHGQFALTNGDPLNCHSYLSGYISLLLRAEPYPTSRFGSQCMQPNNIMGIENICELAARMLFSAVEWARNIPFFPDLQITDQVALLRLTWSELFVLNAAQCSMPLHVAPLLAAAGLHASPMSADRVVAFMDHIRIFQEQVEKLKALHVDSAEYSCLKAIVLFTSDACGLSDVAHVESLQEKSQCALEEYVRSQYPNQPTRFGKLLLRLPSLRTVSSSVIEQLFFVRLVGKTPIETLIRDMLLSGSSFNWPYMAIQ

[4] = target: Photoreceptor-specific nuclear receptor (Homo sapiens, UniProt Q9Y5X4); format: functional, cell-based;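 note: CHO-S cells with Gal4-NCOR and VP16-NR2E3 two-hybrid luciferase reporter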
Photoreceptor-specific nuclear receptor, sequence (Q9Y5X4 whole entry, the tested form may be a part): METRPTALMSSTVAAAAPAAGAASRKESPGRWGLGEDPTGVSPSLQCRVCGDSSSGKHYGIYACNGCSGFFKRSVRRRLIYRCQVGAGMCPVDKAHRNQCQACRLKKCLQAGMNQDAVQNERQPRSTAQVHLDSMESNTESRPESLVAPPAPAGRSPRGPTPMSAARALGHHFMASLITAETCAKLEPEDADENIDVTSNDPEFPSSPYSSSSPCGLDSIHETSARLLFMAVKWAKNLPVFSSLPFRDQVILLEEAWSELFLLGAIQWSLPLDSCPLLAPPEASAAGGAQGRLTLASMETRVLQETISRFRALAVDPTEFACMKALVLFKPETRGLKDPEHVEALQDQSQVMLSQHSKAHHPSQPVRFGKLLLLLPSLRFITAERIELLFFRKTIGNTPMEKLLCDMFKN

[5] = T. b. rhodesiense proliferation inhibition, dose response, STIB900 strain, plate reader, dry powder (AID 651894); format: functional, cell-based
[6] = growth inhibition of intracellular T. cruzi, dose response, cell-based, plate reader, dry powder samples (AID 651845); format: functional
[7] = L-6 rat myoblast cytotoxicity, dose response, counter-screen for T. cruzi inhibitor project, cell-based, plate reader, dry powder (AID 651895); format: functional
[8] = T. cruzi growth inhibition in host cells, dose response, cell-based, plate reader, dry powder, set 2 (AID 652275); format: functional
[9] = L. donovani amastigote growth inhibition, dose response, axenic amastigotes, plate reader, dry powder (AID 651892); format: functional, cell-based
[10] = T. cruzi intracellular amastigote growth inhibition, dose response, imaging, CA-I/72 strain, bovine embryo skeletal muscle, dry powder (AID 651885); format: functional, cell-based
[11] = P. falciparum blood-stage growth inhibition, dose response, NF54 strain, plate reader, dry powder (AID 651889); format: functional, cell-based
[12] = T. cruzi amastigote growth inhibition, dose response, Tulahuen strain, L-6 host cells, dry powder (AID 651890); format: functional, cell-based
[13] = HepG2 cell cytotoxicity, dose response, cytotoxicity control, CellTiter-Glo luminescence, cherry-pick, set 2 (AID 743395); format: functional
[14] = HepG2 cell cytotoxicity, dose response, cytotoxicity control, ATP luminescence, cherry-pick, set 6 (AID 1053125); format: functional, cell-based
cells [15] = details: A549
[16] = target: T1, Corticotropin-releasing factor receptor 2/Corticotropin-releasing factor-binding protein (Homo sapiens, UniProt P24387+Q13324); assay: activators of CRF receptor 2 with binding protein – uHTS hits, confirmation (AID 602473); format: functional; details: read-out: EC50_Mean
T1 sequence (Q13324 whole entry): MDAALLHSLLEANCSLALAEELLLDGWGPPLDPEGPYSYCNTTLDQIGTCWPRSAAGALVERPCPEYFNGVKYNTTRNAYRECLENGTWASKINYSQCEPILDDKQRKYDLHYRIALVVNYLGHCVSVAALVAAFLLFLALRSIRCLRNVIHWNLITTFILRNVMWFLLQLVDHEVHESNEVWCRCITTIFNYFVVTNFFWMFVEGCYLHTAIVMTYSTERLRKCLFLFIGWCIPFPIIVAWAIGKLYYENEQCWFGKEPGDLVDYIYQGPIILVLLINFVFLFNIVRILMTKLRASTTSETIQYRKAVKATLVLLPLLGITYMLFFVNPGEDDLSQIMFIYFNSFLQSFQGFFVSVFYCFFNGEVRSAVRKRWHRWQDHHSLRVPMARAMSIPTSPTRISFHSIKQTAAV
T1 sequence (P24387 whole entry): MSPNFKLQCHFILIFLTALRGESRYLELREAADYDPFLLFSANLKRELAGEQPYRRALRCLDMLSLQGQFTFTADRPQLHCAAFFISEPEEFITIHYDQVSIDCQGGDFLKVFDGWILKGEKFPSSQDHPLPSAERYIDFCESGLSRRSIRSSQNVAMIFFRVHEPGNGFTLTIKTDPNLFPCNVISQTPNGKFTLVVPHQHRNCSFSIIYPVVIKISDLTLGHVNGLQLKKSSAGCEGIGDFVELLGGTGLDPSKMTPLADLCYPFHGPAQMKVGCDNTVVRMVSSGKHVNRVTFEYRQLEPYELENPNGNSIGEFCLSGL

HeLa = assay: HeLa cell cytotoxicity, dose response, cytotoxicity control, ATP luminescence, cherry-pick samples (AID 687004); format: functional, cell-based; details: Homo sapiens
HEK293 = assay: HEK293T cell cytotoxicity, dose response, cytotoxicity control, ATP luminescence, cherry-pick samples (AID 687005); format: functional, cell-based; details: Homo sapiens;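 note: cells exposed to compound for 48 hours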
[17] = HEK293 Cytotoxicity Assay Measured in Cell-Based System Using Plate Reader - 7071-01_Inhibitor_Dose_CherryPick_Activity_Set2.; format: functional
[18] = Late stage counterscreen for inhibitors of Trypanosoma brucei methionyl tRNA synthetase (MetRS): Luminescence-based cell-based high throughput dose response assay to identify compounds that are cytotoxic to Jurkat human T lymphocyte cells.; format: functional
[19] = target: T2, Methionyl-tRNA synthetase, putative (Trypanosoma brucei brucei, UniProt Q38C91); format: functional, Trypanosoma brucei brucei strain 927/4 GUTat10.1
T2 sequence (Q38C91 whole entry): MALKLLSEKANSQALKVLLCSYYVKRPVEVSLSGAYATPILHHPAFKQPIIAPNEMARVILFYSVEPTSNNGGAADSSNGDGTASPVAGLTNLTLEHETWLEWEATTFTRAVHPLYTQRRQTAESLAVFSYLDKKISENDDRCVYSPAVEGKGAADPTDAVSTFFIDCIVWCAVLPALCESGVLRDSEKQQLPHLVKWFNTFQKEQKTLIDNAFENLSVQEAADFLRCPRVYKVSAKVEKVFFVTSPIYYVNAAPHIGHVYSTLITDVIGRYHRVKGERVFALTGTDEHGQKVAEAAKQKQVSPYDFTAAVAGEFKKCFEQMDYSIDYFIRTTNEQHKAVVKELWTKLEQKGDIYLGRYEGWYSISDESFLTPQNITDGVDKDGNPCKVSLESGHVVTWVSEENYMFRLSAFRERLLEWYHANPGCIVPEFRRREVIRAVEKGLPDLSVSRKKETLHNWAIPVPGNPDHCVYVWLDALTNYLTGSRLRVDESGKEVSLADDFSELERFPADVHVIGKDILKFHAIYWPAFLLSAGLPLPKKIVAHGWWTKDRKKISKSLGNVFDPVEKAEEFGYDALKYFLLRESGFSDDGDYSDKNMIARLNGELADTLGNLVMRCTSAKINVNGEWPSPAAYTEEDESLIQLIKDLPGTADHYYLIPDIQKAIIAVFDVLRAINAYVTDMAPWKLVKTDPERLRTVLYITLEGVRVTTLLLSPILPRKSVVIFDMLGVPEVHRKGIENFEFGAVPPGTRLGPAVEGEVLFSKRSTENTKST

[20] = Counterscreen for inhibitors of Trypanosoma brucei methionyl tRNA synthetase (MetRS): Luminescence-based cell-based high throughput dose response assay to identify compounds that are cytotoxic to Jurkat human T lymphocyte cells.; format: functional
[21] = target: T2, Methionyl-tRNA synthetase, putative; format: functional, Trypanosoma brucei brucei strain 927/4 GUTat10.1; remark: listed apart in the source
[22] = Late stage assay provider results from the probe development effort to identify inhibitors of the Plasmodium falciparum M18 Aspartyl Aminopeptidase (M18AAP): radiolabel-based cell-based dose response assay to identify compounds that inhibit P. falciparum growth in RBCs, Set 2..; format: functional
[23] = A549 cell cytotoxicity, dose response, cytotoxicity control, cherry-picks, 26 µM top dose (AID 1053119); format: functional, cell-based
[24] = HEK293 cell cytotoxicity, dose response, cytotoxicity control, cherry-picks, set 5 (AID 1053117); format: functional, cell-based
[25] = inhibitors of fibronectin matrix deposition, dose response, AH1F cells, Alexa488-FN fluorescence, cherry-picks (AID 1035475); format: functional, cell-based
[26] = target: ATP-dependent translocase ABCB1 (Homo sapiens, UniProt P08183); assay: ABCB1 efflux inhibition concentration-response, dose response, Jurkat-DNR cells, JC-1, flow cytometry, follow-up (AID 489002); format: functional
[27] = HEK293T cell cytotoxicity, dose response, cytotoxicity control, CellTiter-Glo luminescence, dry powder, set 2 (AID 720595); format: functional, cell-based; details: HEK293
[28] = HepG2 hepatoma cell cytotoxicity, dose response, cytotoxicity control, CellTiter-Glo luminescence, dry powder, set 3 (AID 720594); format: functional, cell-based
[29] = IGROV1 ovarian cancer cell cytotoxicity, dose response, PAX8 inhibitor project, plate reader, dry powder samples (AID 743043); format: functional, cell-based; details: IGROV-1
Paired box protein Pax-8 = Paired box protein Pax-8 (Homo sapiens, UniProt Q06710); assay: inhibitors of PAX8-driven TPO luciferase reporter, dose response, RMG-I cells, cherry-pick (AID 687027); format: functional, cell-based;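 note: luciferase reporter driven by Pax8 target thyroperoxidase promoter measured by SteadyGlo luminescence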
Paired box protein Pax-8, sequence (Q06710 whole entry): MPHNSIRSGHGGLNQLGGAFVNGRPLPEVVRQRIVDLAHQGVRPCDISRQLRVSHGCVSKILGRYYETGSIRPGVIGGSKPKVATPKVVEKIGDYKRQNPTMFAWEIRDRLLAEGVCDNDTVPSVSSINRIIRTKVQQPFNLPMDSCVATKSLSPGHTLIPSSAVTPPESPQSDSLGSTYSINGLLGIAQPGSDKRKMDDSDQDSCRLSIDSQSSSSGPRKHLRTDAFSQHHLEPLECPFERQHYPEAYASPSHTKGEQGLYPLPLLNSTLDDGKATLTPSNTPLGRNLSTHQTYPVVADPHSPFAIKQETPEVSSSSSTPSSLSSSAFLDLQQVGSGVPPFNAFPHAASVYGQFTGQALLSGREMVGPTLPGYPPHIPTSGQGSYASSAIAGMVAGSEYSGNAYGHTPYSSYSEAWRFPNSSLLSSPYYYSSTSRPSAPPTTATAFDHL

[30] = A2780 ovarian cancer cell cytotoxicity, dose response, cytotoxicity control, plate reader, dry powder samples (AID 743046); format: functional, cell-based
[31] = IOSE-T80 ovarian epithelial cell cytotoxicity, dose response, cytotoxicity control for PAX8 inhibitor project, plate reader, dry powder samples (AID 743045); format: functional, cell-based
[32] = NIH:OVCAR-3 ovarian cancer cell cytotoxicity, dose response, PAX8 inhibitor project, plate reader, dry powder samples (AID 743044); format: functional, cell-based
cells [33] = assay: cells
cells [34] = details: HEK293;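 note: cells exposed to compound for 48 hours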
[35] = target: 1-phosphatidylinositol 4,5-bisphosphate phosphodiesterase beta-3 (Homo sapiens, UniProt Q01970); assay: Fluorescence-based biochemical high throughput dose response assay to identify inhibitors of phospholipase C isozymes (PLC-B3).
1-phosphatidylinositol 4,5-bisphosphate phosphodiesterase beta-3, sequence (Q01970 whole entry): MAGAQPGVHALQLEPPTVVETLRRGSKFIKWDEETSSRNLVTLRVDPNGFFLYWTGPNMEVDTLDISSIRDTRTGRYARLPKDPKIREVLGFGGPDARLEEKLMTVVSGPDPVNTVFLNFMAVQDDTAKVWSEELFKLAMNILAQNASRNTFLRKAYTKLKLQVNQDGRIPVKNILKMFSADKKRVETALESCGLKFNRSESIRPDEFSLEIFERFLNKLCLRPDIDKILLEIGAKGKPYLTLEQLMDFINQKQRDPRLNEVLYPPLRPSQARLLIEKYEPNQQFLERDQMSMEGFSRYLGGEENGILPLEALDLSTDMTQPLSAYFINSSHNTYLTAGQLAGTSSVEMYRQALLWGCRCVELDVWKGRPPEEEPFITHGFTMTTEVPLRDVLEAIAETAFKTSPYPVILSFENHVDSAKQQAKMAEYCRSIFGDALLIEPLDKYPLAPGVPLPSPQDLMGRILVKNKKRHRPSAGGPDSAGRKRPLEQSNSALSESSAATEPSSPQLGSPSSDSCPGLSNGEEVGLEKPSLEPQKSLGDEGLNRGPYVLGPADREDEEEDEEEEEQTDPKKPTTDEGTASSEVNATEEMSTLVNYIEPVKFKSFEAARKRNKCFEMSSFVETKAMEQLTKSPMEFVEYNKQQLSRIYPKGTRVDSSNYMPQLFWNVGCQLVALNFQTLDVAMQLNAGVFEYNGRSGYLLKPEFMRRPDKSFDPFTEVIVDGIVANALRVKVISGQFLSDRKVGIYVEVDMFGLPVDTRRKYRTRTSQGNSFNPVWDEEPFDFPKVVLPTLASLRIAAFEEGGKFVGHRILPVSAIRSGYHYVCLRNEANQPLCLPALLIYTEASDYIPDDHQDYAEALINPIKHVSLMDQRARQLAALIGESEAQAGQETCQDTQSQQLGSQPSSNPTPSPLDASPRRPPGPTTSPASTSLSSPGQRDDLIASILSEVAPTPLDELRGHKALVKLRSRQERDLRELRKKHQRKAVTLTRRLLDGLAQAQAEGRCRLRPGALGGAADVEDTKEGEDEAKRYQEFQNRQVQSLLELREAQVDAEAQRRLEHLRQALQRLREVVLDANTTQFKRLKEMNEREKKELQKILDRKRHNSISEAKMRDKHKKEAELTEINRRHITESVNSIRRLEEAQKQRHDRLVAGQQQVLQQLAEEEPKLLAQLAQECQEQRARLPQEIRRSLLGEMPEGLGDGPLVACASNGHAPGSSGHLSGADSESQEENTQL

[36] = target: 1-phosphatidylinositol 4,5-bisphosphate phosphodiesterase gamma-1 (Homo sapiens, UniProt P19174); assay: Counterscreen for inhibitors of phospholipase C isozymes (PLC-B3): Fluorescence-based biochemical high throughput dose response assay to identify inhibitors of phospholipase C isozymes (PLC-gamma1).
1-phosphatidylinositol 4,5-bisphosphate phosphodiesterase gamma-1, sequence (P19174 whole entry): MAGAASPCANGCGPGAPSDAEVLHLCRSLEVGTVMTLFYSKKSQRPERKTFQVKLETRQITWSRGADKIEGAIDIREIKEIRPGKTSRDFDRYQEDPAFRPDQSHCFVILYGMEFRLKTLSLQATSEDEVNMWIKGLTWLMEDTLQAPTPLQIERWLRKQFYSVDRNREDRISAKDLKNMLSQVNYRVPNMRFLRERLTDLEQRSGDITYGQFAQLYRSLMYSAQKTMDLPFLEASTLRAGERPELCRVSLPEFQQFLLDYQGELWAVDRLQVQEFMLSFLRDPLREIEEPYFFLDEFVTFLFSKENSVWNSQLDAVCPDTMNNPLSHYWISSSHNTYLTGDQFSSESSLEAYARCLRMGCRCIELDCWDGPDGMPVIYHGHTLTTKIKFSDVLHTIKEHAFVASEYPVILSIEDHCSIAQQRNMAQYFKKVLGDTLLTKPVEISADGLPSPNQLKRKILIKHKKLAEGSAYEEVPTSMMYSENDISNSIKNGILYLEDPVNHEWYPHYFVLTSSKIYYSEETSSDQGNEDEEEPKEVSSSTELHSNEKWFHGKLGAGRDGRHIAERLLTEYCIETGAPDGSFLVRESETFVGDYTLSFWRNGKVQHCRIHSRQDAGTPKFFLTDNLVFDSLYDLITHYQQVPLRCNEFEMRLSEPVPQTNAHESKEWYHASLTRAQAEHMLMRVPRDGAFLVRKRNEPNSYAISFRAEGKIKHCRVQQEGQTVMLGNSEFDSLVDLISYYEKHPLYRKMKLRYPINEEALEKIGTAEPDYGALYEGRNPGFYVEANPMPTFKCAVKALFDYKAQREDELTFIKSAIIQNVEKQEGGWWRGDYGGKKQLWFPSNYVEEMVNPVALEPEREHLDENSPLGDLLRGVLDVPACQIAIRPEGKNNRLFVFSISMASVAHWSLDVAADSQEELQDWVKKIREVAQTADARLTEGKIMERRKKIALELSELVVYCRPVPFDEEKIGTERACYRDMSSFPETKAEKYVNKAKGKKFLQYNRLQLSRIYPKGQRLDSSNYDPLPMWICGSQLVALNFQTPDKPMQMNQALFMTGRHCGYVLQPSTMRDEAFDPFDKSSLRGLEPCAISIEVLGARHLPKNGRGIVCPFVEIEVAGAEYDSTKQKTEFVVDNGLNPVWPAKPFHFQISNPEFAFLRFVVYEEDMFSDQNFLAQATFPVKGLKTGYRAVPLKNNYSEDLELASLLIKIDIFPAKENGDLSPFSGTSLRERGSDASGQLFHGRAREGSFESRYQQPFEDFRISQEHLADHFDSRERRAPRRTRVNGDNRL

[37] = target: Metabotropic glutamate receptor 5 (Rattus norvegicus, UniProt P31424); assay: Identification of a glycine sulfonamide based non-MPEP site positive allosteric potentiator (PAM) of mGlu5 (calcium_assay).; format: functional

Potassium channel subfamily K member 3, sequence (O14649 whole entry): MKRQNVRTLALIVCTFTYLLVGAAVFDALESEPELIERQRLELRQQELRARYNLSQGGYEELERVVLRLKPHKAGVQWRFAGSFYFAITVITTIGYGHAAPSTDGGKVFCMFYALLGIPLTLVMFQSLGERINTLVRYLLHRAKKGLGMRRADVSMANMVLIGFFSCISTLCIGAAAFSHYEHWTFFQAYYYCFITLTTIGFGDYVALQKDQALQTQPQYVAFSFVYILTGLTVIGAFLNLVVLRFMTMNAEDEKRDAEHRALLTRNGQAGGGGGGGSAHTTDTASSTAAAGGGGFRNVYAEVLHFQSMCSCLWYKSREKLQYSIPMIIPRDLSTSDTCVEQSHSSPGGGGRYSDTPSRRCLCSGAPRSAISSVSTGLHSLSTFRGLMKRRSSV

Cc1cccc(C(=O)Nc2cccc(NC(=O)C3CCCCC3)c2)c1
IC50 [1]: 0.017 µM (active) | IC50 [2]: 11.9 µM (active)

OC[C@@H]1CN(Cc2ccc(-c3ccccc3)cc2)C[C@H](n2cnc3c(NCc4ccncc4)ncnc32)O1
IC50 [3]: 10 µM (inactive) | IC50 [4]: 1.52 µM (active)

C[C@@H]1CN([C@@H](C)CO)C(=O)c2cccc(NC(=O)c3ccncc3)c2O[C@@H]1CN(C)Cc1ccc(Oc2ccccc2)cc1
IC50 [5]: 1.02 µM (inactive) | AC50 [6]: 0.506 µM (active) | IC50 [7]: 47.6 µM (inactive) | AC50 [8]: 0.276 µM (active) | IC50 [9]: > 100 µM (inactive) | IC50 [10]: 0.55 µM (active) | IC50 [11]: 0.873 µM (inactive) | IC50 [12]: 0.666 µM (active)

COc1ccc(NC(=O)c2cc(S(=O)(=O)N3CCOCC3)ccc2C)cc1S(=O)(=O)N1CCOCC1
AbsAC35_uM [13]: 36.86 µM

CCCCCCc1cc2cc(S(=O)(=O)c3ccc(F)cc3)c(=O)oc2cc1O
AC50 [14]: 50.4 µM (active) | AC50 (cells [15]): 42.1 µM (active) | EC50 [16]: > 53 µM (inactive)

COc1ccc(CN(C)C[C@H]2Oc3ccc(NC(=O)Nc4ccc(F)cc4)cc3CC(=O)N([C@@H](C)CO)C[C@@H]2C)cc1
AC50 (HeLa): > 52 µM (inactive) | AC50 (HEK293): 26.3 µM (active) | AC50 [17]: 26.3 µM (active)

O=C(Nc1ccc(F)c(Cl)c1)C1CC(=O)n2c(nc3ccccc32)N1 (stereo not given)
IC50 [18]: > 83.3 µM (inactive) | IC50 [19]: 2.34 µM (active) | IC50 [20]: 83.3 µM (inactive) | IC50 [21]: 1.47 µM (active)

COc1ccc(CCNC2CCN(Cc3ccccc3)CC2)cc1OC
IC50 [22]: 6.9 µM (active)

CCOc1cccc(C(=O)Nc2ccc(N(CC)CC)cc2)c1
AC50 [23]: > 52 µM (inactive) | AC50 [24]: 34.6 µM (active) | AC50 [25]: 64.4 µM (active)

O=C(Nc1ccccc1)C1CCN(c2cc(-c3ccco3)nc3cc(-c4ccccc4)nn23)CC1
EC50 [26]: 0.1399 µM

CC1CCN(S(=O)(=O)c2ccc(C(=O)Nc3nnc(C4=COCCO4)o3)cc2)CC1
AC50 [27]: 48.7 µM (active) | AC50 [28]: > 52 µM (inactive)

C[C@@H]1CN([C@H](C)CO)C(=O)c2cc(NC(=O)Nc3ccc(C(F)(F)F)cc3)ccc2O[C@@H](C)CCCCO[C@@H]1CN(C)Cc1ccncc1
AC50 [29]: 41.8 µM (active) | AC50 (Paired box protein Pax-8): 4.21 µM (active) | AC50 [30]: 56.9 µM (active) | AC50 [31]: 56.4 µM (active) | AC50 [32]: 14.8 µM (active)

Cc1ccc2[nH]c3ccccc3c(=O)c2c1
AC50 (cells [33]): 7.34 µM (active) | AC50 (cells [34]): 38.6 µM (active)

CC/C(NCC1CCCO1)=C1/C(=O)NC(=O)N(Cc2ccccc2)C1=O (stereo not given)
IC50 [35]: > 122 µM (inactive) | IC50 [36]: > 122 µM (inactive)

CS(=O)(=O)N1c2ccccc2CCC1C(=O)Nc1cccnc1 (stereo not given)
EC50 [37]: 3.62 µM
